Data set [1] concerns the target T1, P. falciparum nicotinamidase (PfNic) (Plasmodium falciparum, UniProt O97284).
T1 construct: gene PF3D7_0320500
T1 sequence (O97284 1-429): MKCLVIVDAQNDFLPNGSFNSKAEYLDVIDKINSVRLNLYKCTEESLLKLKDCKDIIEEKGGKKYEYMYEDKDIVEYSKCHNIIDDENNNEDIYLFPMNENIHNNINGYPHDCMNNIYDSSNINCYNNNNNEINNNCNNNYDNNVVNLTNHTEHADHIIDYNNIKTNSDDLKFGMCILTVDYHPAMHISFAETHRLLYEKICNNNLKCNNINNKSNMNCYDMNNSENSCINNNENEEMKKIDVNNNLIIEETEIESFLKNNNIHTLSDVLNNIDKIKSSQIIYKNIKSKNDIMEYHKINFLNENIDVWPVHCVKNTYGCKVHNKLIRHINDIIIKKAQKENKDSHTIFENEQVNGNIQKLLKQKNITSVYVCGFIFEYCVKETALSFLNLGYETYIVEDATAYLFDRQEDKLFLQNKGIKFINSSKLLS
In words: […]-nicotinamide to nicotinic acid conversion (HPLC, scintillation counting) in lysates of parasites pre-treated with […] compound for […] h. It is filed as cell-based.

Substrate in data set [2]: NC(=O)c1cccnc1
Kind of data set: purified protein. It is filed as biochemical, Plasmodium falciparum.

The Km is the concentration of substrate that gives half-maximal velocity.

On to `Cc1cncc(C=O)c1` [5-methyl-nicotinaldehyde], for which the “14C-nicotinamide to nicotinic acid conversion (HPLC, scintillation counting) in” value in data set [1] was “indicating 5-Me-nicotinaldehyhde was able to inhibit P. falciparum nicotinamidase in the lysate”.

B1: P. falciparum nicotinamidase (PfNic) (Plasmodium falciparum 3D7) (protein)
chain: T1 sequence (O97284 1-429)
notes: 429 amino acids, N-terminal histidine tag (pet28a), expressed in Rosetta (DE3) E. coli
For B1, the Km in data set [2] turned out to be 3.0 ± 0.9 µM.
